Biological target: human mGluR5A (Homo sapiens (Human), UniProt P41594)
Assay: mGluR5 FLIPR Assay
Assay type: cell-based
Details: positive modulator activity, HEK293 (ZF) cells with human mGluR5A and rat GLAST, Ca++ response to ~EC10 l-glutamate
Method: HEK293 (ZF) cells stably transfected with human mGluR5A (pIRES neo) and the rat glutamate-aspartate transporter (GLAST; pIRES puro) are grown in a monolayer culture at 37° C. in 5% CO2 and fed with Minimum Essential Medium (MEM) supplemented with 10% dialysed fetal bovine serum. […] Plates are incubated in dye at 37° C. in 5% CO2 for 60 minutes prior to delivery of test compounds in assay buffer. Test compounds are incubated with cells in the presence of dye for 10 minutes prior to being read on the FLIPR platform (Molecular Devices). A Ca^++ signal is induced in the assay plates via the delivery of an ˜EC10 concentration of the endogenous agonist 1-glutamate; images are acquired at 1 Hz for 100 seconds post-delivery of agonist stimulus. Positive modulator activity (i.e. the ability of test compounds to increase the Ca^++ response to a sub-maximal concentration of agonist) is normalized to a saturating concentration of a known mGluR5 PAM run in each assay plate. An EC50 concentration of test compounds is derived from 4-parameter logistic curve fits of transformed fluoresence data via proprietary software suite.

Sequence of human mGluR5A (P41594 other isoform, or with tags, fused parts or gaps): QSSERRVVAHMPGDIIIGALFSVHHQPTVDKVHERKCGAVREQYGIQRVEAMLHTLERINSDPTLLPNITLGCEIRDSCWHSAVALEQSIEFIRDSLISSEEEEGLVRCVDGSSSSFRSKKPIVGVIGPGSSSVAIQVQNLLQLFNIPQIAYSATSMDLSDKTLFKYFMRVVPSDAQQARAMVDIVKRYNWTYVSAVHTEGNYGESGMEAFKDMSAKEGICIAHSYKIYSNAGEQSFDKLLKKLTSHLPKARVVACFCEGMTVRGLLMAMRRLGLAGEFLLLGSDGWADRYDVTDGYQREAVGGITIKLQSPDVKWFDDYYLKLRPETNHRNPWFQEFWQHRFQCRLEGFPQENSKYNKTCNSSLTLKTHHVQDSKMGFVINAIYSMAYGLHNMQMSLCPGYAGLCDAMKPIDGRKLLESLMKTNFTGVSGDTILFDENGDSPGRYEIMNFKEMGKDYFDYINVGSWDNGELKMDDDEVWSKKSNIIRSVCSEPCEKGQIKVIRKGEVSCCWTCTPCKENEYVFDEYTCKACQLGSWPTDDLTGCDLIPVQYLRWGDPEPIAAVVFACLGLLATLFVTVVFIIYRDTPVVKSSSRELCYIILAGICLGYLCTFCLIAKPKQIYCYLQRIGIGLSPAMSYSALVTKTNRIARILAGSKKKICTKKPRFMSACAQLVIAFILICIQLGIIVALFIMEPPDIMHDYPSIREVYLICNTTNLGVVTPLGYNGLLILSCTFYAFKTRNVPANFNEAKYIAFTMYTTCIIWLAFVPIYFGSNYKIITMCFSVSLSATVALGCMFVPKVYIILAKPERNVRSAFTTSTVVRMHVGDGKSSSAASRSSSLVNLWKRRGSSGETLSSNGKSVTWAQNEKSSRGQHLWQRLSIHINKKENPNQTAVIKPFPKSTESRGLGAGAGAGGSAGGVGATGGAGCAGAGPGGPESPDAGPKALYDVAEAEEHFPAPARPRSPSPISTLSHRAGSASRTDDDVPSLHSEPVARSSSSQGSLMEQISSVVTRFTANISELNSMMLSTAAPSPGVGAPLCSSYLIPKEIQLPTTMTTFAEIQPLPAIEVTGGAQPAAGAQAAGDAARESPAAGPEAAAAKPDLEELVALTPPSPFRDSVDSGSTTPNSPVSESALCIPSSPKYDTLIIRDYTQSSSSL

| Compound | EC50 [nM] |
| --- | --- |
| CCOCC#Cc1cncc([C@H]2NC(=O)O[C@@H]2c2cccc(F)c2)c1 [Example 53] | 16.2 |
| Cc1cnn(CC#Cc2cncc([C@H]3NC(=O)O[C@@H]3c3cccc(F)c3)c2)c1 [Example 54] | 107 |
| CCOCCC#Cc1cncc([C@H]2NC(=O)O[C@@H]2c2cccc(F)c2)c1 [Example 55] | 27.8 |
| CCCCC(O)C#Cc1cncc([C@H]2NC(=O)O[C@@H]2c2cccc(F)c2)c1 (stereo partly drawn) [Example 56] | 67 |
| O=C1N[C@H](c2cncc(C#CC(O)C3CC3)c2)[C@@H](c2cccc(F)c2)O1 (stereo partly drawn) [Example 58] | 204 |
| COCC#Cc1cncc([C@H]2NC(=O)O[C@@H]2c2cccc(F)c2)c1 [Example 60] | 458 |
| CC(C)(C)C#Cc1cncc([C@H]2NC(=O)O[C@@H]2c2cccc(F)c2)c1 [Example 61] | > 3230 |
| O=C1N[C@H](c2cncc(C#CCn3cccn3)c2)[C@@H](c2cccc(F)c2)O1 [Example 62] | 10.9 |
| O=C1N[C@H](c2cncc(C#CCC3CCCO3)c2)[C@@H](c2cccc(F)c2)O1 (stereo partly drawn) [Example 63] | 12.4 |
| O=C1N[C@H](c2cncc(C#CCC3CCOC3)c2)[C@@H](c2cccc(F)c2)O1 (stereo partly drawn) [Example 64] | 20 |
| O=C1N[C@H](c2cncc(C#CCC3CCOC3)c2)[C@@H](c2cccc(F)c2)O1 (stereo partly drawn) [Example 65] | 14.7 |
| O=C1N[C@H](c2cncc(C#CCC3CCOC3)c2)[C@@H](c2cccc(F)c2)O1 (stereo partly drawn) [Example 66] | 15.2 |
| O=C1N[C@H](c2cncc(C#CCCOCC(F)(F)F)c2)[C@@H](c2cccc(F)c2)O1 [Example 67] | 88.6 |
| O=C1N[C@H](c2cncc(C#CCC3COC3)c2)[C@@H](c2cccc(F)c2)O1 [Example 68] | 932 |
| O=C1N[C@H](c2cncc(C#CCC3CCO3)c2)[C@@H](c2cccc(F)c2)O1 (stereo partly drawn) [Example 69] | > 1610 |
| O=C1N[C@H](c2cncc(C#CCN3CC(F)(F)C3)c2)[C@@H](c2cccc(F)c2)O1 [Example 70, (4R,5R)-4-(5-(3-(3,3-Difluoroazetidin-1-yl)prop-1-yn-1-yl)pyridin-3-yl)-5-(3-fluorophenyl)oxazolidin-2-one] | 29.6 |
| Cc1cn(CC#Cc2cncc([C@H]3NC(=O)O[C@@H]3c3cccc(F)c3)c2)cn1 [Example 71, (4R,5R)-5-(3-Fluorophenyl)-4-(5-(3-(4-methyl-M-imidazol-1-yl)prop-1-yn-1-yl)pyridin-3-yl)oxazolidin-2-one] | > 3230 |
| O=C1N[C@H](c2cncc(C#CC(O)CC3CC3)c2)[C@@H](c2cccc(F)c2)O1 (stereo partly drawn) [Example 72, (4R,5R)-4-(5-(4-Cyclopropyl-3-hydroxybut-1-yn-1-yl)pyridin-3-yl)-5-(3-fluorophenyl)oxazolidin-2-one] | 16.6 |
| CC1CC1C(O)C#Cc1cncc([C@H]2NC(=O)O[C@@H]2c2cccc(F)c2)c1 (stereo partly drawn) [Example 75] | 129 |
| O=C1N[C@H](c2cncc(C#CC(O)C3CC3(F)F)c2)[C@@H](c2cccc(F)c2)O1 (stereo partly drawn) [Example 76] | 334 |
| CC1(C)CC1C(O)C#Cc1cncc([C@H]2NC(=O)O[C@@H]2c2cccc(F)c2)c1 (stereo partly drawn) [Example 77] | > 1610 |

| Compound | EC50 [nM] |
| --- | --- |
| CN(C)CC#Cc1cncc([C@H]2NC(=O)O[C@@H]2c2cccc(F)c2)c1 [Example 79, (4R,5R)-4-(5-(3-(Dimethylamino)prop-1-yn-1-yl)pyridin-3-yl)-5-(3-fluorophenyl)oxazolidin-2-one] | 463 |
| COc1cccc([C@H]2OC(=O)N[C@@H]2c2cccc(C#CC3CC3)c2)c1 [Example 80, (4R,5R)-4-(3-(Cyclopropylethynyl)phenyl)-5-(3-methoxyphenyl)oxazolidin-2-one] | > 3000 |
| O=C1N[C@H](c2cncc(C#CC3CCCCC3)c2)[C@@H](c2cc(F)ccc2F)O1 [Example 81, (4R,5R)-4-(5-(Cyclohexylethynyl)pyridin-3-yl)-5-(2,5-difluorophenyl)oxazolidin-2-one] | 351 |
| O=C1N[C@H](c2cncc(C#CC34CCC(CC3)CC4)c2)[C@@H](c2cc(F)ccc2F)O1 [Example 82, (4R,5R)-4-(5-(Bicyclo[2.2.2]octan-1-ylethynyl)pyridin-3-yl)-5-(2,5-difluorophenyl)oxazolidin-2-one] | 1310 |
| O=C1N[C@H](c2cncc(C#CC34CCC(CC3)CC4)c2)[C@@H](c2cccc(F)c2)O1 [Example 84, (4R,5R)-4-(5-(Bicyclo[2.2.2]octan-1-ylethynyl)pyridin-3-yl)-5-(3-fluorophenyl)oxazolidin-2-one] | 3670 |
| O=C1N[C@H](c2cncc(C#CC3(O)CCCCC3)c2)[C@@H](c2cccc(F)c2)O1 [Example 85, (4R,5R)-5-(3-Fluorophenyl)-4-(5-((1-hydroxycyclohexyl)ethynyl)pyridin-3-yl)oxazolidin-2-one] | 1060 |
| CC1(C#Cc2cncc([C@H]3NC(=O)O[C@@H]3c3cccc(F)c3)c2)CCCCC1 [Example 87, (4R,5R)-5-(3-Fluorophenyl)-4-(5-((1-methylcyclohexyl)ethynyl)pyridin-3-yl)oxazolidin-2-one] | > 10800 |
| O=C1N[C@H](c2cncc(C#CC34CCCCC3C4)c2)[C@@H](c2cccc(F)c2)O1 (stereo partly drawn) [Example 90, (4R,5R)-4-(5-(Bicyclo[4.1.0]heptan-1-ylethynyl)pyridin-3-yl)-5-(3-fluorophenyl)oxazolidin-2-one] | 377 |
| O=C1N[C@H](c2cncc(C#CC3(F)CCCCC3)c2)[C@@H](c2cccc(F)c2)O1 [Example 91, (4R,5R)-4-(5-((1-Fluorocyclohexyl)ethynyl)pyridin-3-yl)-5-(3-fluorophenyl)oxazolidin-2-one] | 96.2 |
| O=C1N[C@H](c2cncc(C#CC3CCC(F)(F)CC3)c2)[C@@H](c2cccc(F)c2)O1 [Example 92, (4R,5R)-4-(5-((4,4-Difluorocyclohexyl)ethynyl)pyridin-3-yl)-5-(3-fluorophenyl)oxazolidin-2-one] | 50.9 |
| O=C1N[C@H](c2cncc(C#CC3CCOCC3)c2)[C@@H](c2cc(F)ccc2F)O1 [Example 100, (4R,5R)-5-(2,5-Difluorophenyl)-4-(5-((tetrahydro-2H-pyran-4-yl)ethynyl)pyridin-3-yl)oxazolidin-2-one] | 282 |
| N#Cc1cccc([C@H]2OC(=O)N[C@@H]2c2cncc(C#CC3CC(F)(F)C3)c2)c1 [Example 107, 3-((4R,5R)-4-(5-((3,3-Difluorocyclobutyl)ethynyl)pyridin-3-yl)-2-oxooxazolidin-5-yl)benzonitrile] | 280 |
| O=C1N[C@H](c2cc(C#CC3CC(F)(F)C3)cnc2F)[C@@H](c2cccc(F)c2)O1 [Example 111, (4R,5R)-4-(5-((3,3-Difluorocyclobutyl)ethynyl)-2-fluoropyridin-3-yl)-5-(3-fluorophenyl)oxazolidin-2-one] | 104 |
| O=C1N[C@H](c2cc(C#CC3CC(F)(F)C3)ccn2)[C@@H](c2ccccc2)O1 [Example 112, (4R,5R)-4-(4-((3,3-Difluorocyclobutyl)ethynyl)pyridin-2-yl)-5-phenyloxazolidin-2-one] | > 3230 |
| O=C1N[C@H](c2cccc(C#CC3CC(F)(F)C3)n2)[C@@H](c2ccccc2)O1 [Example 113, (4R,5R)-4-(6-((3,3-Difluorocyclobutyl)ethynyl)pyridin-2-yl)-5-phenyloxazolidin-2-one] | > 3230 |
| O=C1N[C@H](c2ccnc(C#CC3CC(F)(F)C3)c2)[C@@H](c2ccccc2)O1 [Example 114, (4R,5R)-4-(2-((3,3-Difluorocyclobutyl)ethynyl)pyridin-4-yl)-5-phenyloxazolidin-2-one] | > 3230 |
| COc1cccc([C@H]2OC(=O)N[C@@H]2c2cccc(C#CC3CC(F)(F)C3)c2)c1 [Example 116, (4R,5R)-4-(3-((3,3-Difluorocyclobutyl)ethynyl)phenyl)-5-(3-methoxyphenyl)oxazolidin-2-one] | > 1610 |
| O=C1N[C@H](c2cncc(C#CC3CC(F)(F)C3)c2)[C@@H](c2ccc(F)c(F)c2F)O1 [Example 118, (4R,5R)-4-(5-((3,3-Difluorocyclobutyl)ethynyl)pyridin-3-yl)-5-(2,3,4-trifluorophenyl)oxazolidin-2-one] | 80.5 |
| O=C1N[C@H](c2cncc(C#CC3CC(F)(F)C3)c2)[C@@H](c2ccc(F)c(F)c2)O1 [Example 119, (4R,5R)-4-(5-((3,3-Difluorocyclobutyl)ethynyl)pyridin-3-yl)-5-(3,4-difluorophenyl)oxazolidin-2-one] | 21.6 |
| O=C1N[C@H](c2cncc(C#CC3CC(F)(F)C3)c2)[C@@H](c2cc(F)c(F)cc2F)O1 [Example 122, (4R,5R)-4-(5-((3,3-Difluorocyclobutyl)ethynyl)pyridin-3-yl)-5-(2,4,5-trifluorophenyl)oxazolidin-2-one] | 58.6 |
| O=C1N[C@H](c2cncc(C#CC3CC3)c2)[C@@H](c2cccc(Cl)c2Cl)O1 [Example 125, (4R,5R)-4-(5-(Cyclopropylethynyl)pyridin-3-yl)-5-(2,3-dichlorophenyl)oxazolidin-2-one] | 179 |

Reference: patent US9688669B2, “Oxazolidinones as modulators of mGluR5” (BRISTOL-MYERS SQUIBB COMPANY, priority 2013, dated 2017)
